# From PubChem BioAssay AID1963862 (Molecular Pharmacology Branch, DTP, NCI, 2024)
# Test system: KRAS patient-derived spheroids with HUVEC/MSC, viability
# Assay: Anticancer human tumor 941728-121-R-J1-PDC patient-derived lung adenocarcinoma cell line growth inhibition [KRAS2]
# Details: for viability, T/C: stronger effect = lower value
# Summary of the method: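 Combination screen of spheroid viability in tumor-cell co-cultures with endothelial (HUVEC) and mesenchymal stem cell stroma. Each agent was tested in half-log dilutions, topping at clinical Cmax or at 10 microM without a known Cmax.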
# [1] = curve of first compound, second compound 0.1 µM
# [2] = curve of first compound, second compound 0.316 µM
# [3] = curve of first compound, second compound 1 µM
# [4] = curve of first compound, second compound 3.16 µM
# [5] = second compound 0.1 µM, first compound 0.0316 µM
# [6] = second compound 0.1 µM, first compound 0.1 µM
# [7] = second compound 0.1 µM, first compound 0.316 µM
# [8] = second compound 0.1 µM, first compound 1 µM
# [9] = second compound 0.1 µM, first compound 3.16 µM
# [10] = second compound 0.1 µM, first compound 10 µM
# [11] = second compound 0.316 µM, first compound 0.0316 µM
# [12] = second compound 0.316 µM, first compound 0.1 µM
# [13] = second compound 0.316 µM, first compound 0.316 µM
# [14] = second compound 0.316 µM, first compound 1 µM
# [15] = second compound 0.316 µM, first compound 3.16 µM
# [16] = second compound 0.316 µM, first compound 10 µM
# [17] = second compound 1 µM, first compound 0.0316 µM
# [18] = second compound 1 µM, first compound 0.1 µM
# [19] = second compound 1 µM, first compound 0.316 µM
# [20] = second compound 1 µM, first compound 1 µM
# [21] = second compound 1 µM, first compound 3.16 µM
# [22] = second compound 1 µM, first compound 10 µM
# [23] = second compound 3.16 µM, first compound 0.0316 µM
# [24] = second compound 3.16 µM, first compound 0.1 µM
# [25] = second compound 3.16 µM, first compound 0.316 µM
# [26] = second compound 3.16 µM, first compound 1 µM
# [27] = second compound 3.16 µM, first compound 3.16 µM
# [28] = second compound 3.16 µM, first compound 10 µM
# 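Further: spheroids exposed to agents for seven days before readout.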
Structure (SMILES),IC50 [1],IC50 [2],IC50 [3],IC50 [4],"viability, T/C [5]","viability, T/C [6]","viability, T/C [7]","viability, T/C [8]","viability, T/C [9]","viability, T/C [10]","viability, T/C [11]","viability, T/C [12]","viability, T/C [13]","viability, T/C [14]","viability, T/C [15]","viability, T/C [16]","viability, T/C [17]","viability, T/C [18]","viability, T/C [19]","viability, T/C [20]",also measured
COc1cc2nccc(Oc3ccc(NC(=O)C4(C(=O)Nc5ccc(F)cc5)CC4)cc3)c2cc1OC + CNCc1ccccc1-c1csc(C(C)Nc2nc(C)nc3cc(OC)c(OC)cc23)c1,85.5 nM,< 31.6 nM,< 31.6 nM,< 31.6 nM,59.8%,46.5%,42.2%,39.7%,19.2%,39.2%,39%,34.5%,28.8%,21.3%,12.4%,25.4%,16.1%,21%,10.2%,5.77%,"IC50 (curve of first compound, second compound 10 µM): < 31.6 nM; viability, T/C [21]: 2.51%; viability, T/C [22]: 8.64%; viability, T/C [23]: 0.1%; viability, T/C [24]: 0.43%; viability, T/C [25]: 0.05%; viability, T/C [26]: 0.1%; viability, T/C [27]: 0.03%; viability, T/C [28]: 0.12%; viability, T/C (second compound 10 µM, first compound 0.0316 µM): 0.36%; viability, T/C (second compound 10 µM, first compound 0.1 µM): 0.07%; viability, T/C (second compound 10 µM, first compound 0.316 µM): 0.08%; viability, T/C (second compound 10 µM, first compound 1 µM): 0.08%; viability, T/C (second compound 10 µM, first compound 3.16 µM): 0.31%; viability, T/C (second compound 10 µM, first compound 10 µM): 0.21%"
C=CC(=O)N1CCN(c2nc(OCC3CCCN3C)nc3c2CCN(c2cccc4cccc(C)c24)C3)CC1CC#N (stereo not given),–,–,–,–,–,–,–,–,–,–,–,–,–,–,–,–,–,–,–,–,"viability, T/C (compound 0.1 µM): 30.3% [middle of 16 runs]; viability, T/C (compound 1 µM): 27.2% [middle of 17 runs]; IC50 (compound alone, run of 07/12/2021): < 31.6 nM; IC50 (compound alone, run of 07/19/2021): < 31.6 nM; IC50 (compound alone, run of 07/26/2021): < 31.6 nM"
COc1cc(Nc2ncc3c(n2)-c2ccc(Cl)cc2C(c2c(F)cccc2OC)=NC3)ccc1C(=O)O + C=CC(=O)N1CCN(c2nc(OCC3CCCN3C)nc3c2CCN(c2cccc4cccc(C)c24)C3)CC1CC#N,< 31.6 nM,< 31.6 nM,< 31.6 nM,< 31.6 nM,33.6%,30.4%,25.6%,25.9%,22.8%,20.9%,30.4%,26.1%,26.8%,26.1%,22%,20.3%,26.5%,26.3%,27.1%,22.9%,"IC50 (curve of first compound, second compound 0.0316 µM): < 31.6 nM; viability, T/C (second compound 0.0316 µM, first compound 0.0316 µM): 32.1%; viability, T/C (second compound 0.0316 µM, first compound 0.1 µM): 29.5%; viability, T/C (second compound 0.0316 µM, first compound 0.316 µM): 26.1%; viability, T/C (second compound 0.0316 µM, first compound 1 µM): 26.3%; viability, T/C (second compound 0.0316 µM, first compound 3.16 µM): 22.9%; viability, T/C (second compound 0.0316 µM, first compound 10 µM): 20.3%; viability, T/C [21]: 23%; viability, T/C [22]: 16.5%; viability, T/C [23]: 0.53%; viability, T/C [24]: 0.41%; viability, T/C [25]: 0.87%; viability, T/C [26]: 0.19%; viability, T/C [27]: 0.26%; viability, T/C [28]: 0.18%"
